Measurements published in patent US9572786B2, “Use of capsiate or dihydrocapsidate” (Catholic University Industry Academy Cooperation Foundation, priority 2007, dated 2017).

Tests used:
ERK = assay: MAPK signaling after UV, Western blotting: ERK; format: cell-based, human; details: HaCaT cells; 10, 25, 50 μM; 30 minutes after UV irradiation
Description: Western blotting was performed in the same manner as in Example 2-1 in order to identify the factor that affects the COX-2 expression regulated by capsiate, except for treating the cells with capsiate at different concentrations (10 μM, 25 μM and 50 μM) prior to UV irradiation, and using rabbit anti-ERK antibody, rabbit anti-p-ERK antibody, rabbit anti-p38 antibody, rabbit anti-p-p38 antibody, rabbit anti-JNK antibody and rabbit anti-p-JNK antibody (cell signaling), and anti-rabbit IgG-HRP conjugation antibody (Zymed) as the secondary antibody, 30 minutes after UV irradiation.

VEGF [1] = assay: UV-induced VEGF expression, immunohistochemical staining; format: cell-based, human; details: HaCaT cells; 25 μM; UV 100 J/m^2; 24 hours
Description: First, the inhibition effect of capsiate on the expression of VEGF, the typical intracellular angiogenesis factor, was evaluated by immunohistochemical staining in order to investigate the inhibition effect of capsiate on angiogenesis.
HaCaT cells were placed on a 14 mm culture slide and cultured for 24 hours in DMEM containing 10% FBS. Subsequently, the cells were cultured for 24 hours in DMEM containing 1% FBS until starvation. Then, after treating with 25 μM capsiate for 30 minutes, followed by washing 3 times with PBS, UV was irradiated at an intensity of 100 J/m^2. Immediately after the UV irradiation, the cells were washed again with PBS and further cultured for 24 hours in DMEM containing 1% FBS, which was treated with capsiate at the same concentration as in the pre-treatment. The cells were fixed for 5 minutes using methanol and immunohistochemical staining was carried out in the same manner as in Example 2-3. For VEGF detection, rabbit anti-VEGF IgG antibody (Santa Cruz, USA) and Alexa 488-labeled anti-rabbit-IgG secondary antibody (Invitrogen, USA) were used.

MMP-9 = assay: Zymography of secreted MMP-9 after UV; format: cell-based, human; details: HaCaT culture medium; 10, 25, 50 μM; UV 100 J/m^2; 36 hours
Description: Zymography was carried out in order to investigate the decrease of expression and activity of MMP-2 and MMP-9 in protein level.
5×10^5 HaCaT cells were placed on a 60 mm Petri dish and cultured for 24 hours in DMEM containing 10% FBS. Subsequently, the cells were cultured for 24 hours in DMEM containing 1% FBS until starvation. Then, after treating with capsiate at different concentrations (10 μM, 25 μM, 50 μM) for 30 minutes, followed by washing 3 times with PBS, UV was irradiated at an intensity of 100 J/m^2. Immediately after the UV irradiation, the cells were washed again with PBS and further cultured for 36 hours in DMEM containing 1% FBS, which was treated with capsiate at the same concentration as in the pre-treatment. After collecting the culture medium, the activity of MMP-2 and MMP-9 proteins secreted from the cells into the medium was measured. To this end, the mediums obtained from the same number of cells were concentrated to the same volume, and the temperature was maintained at 4° C. in order to avoid the effect on the protein activity.
Thus prepared sample was subjected to electrophoresis at 4° C. using 7.5% acrylamide gel containing gelatin but without sodium dodecyl sulfate (SDS). […]

ICAM-1 (CD54) = assay: ICAM-1 expression in mouse skin, Western blotting; format: in vivo; details: mouse skin tissue; test group B
Description: (§1) In order to investigate the effect of capsiate on various intracellular angiogenesis-related expression factors, the inhibition effect of capsiate on angiogenesis factors induced by UV was evaluated using the mouse tissue of Example 5.
Western blotting was carried out in the same manner as Example 6 using the proteins isolated from the mouse skin tissue of each test group in Example 6, in order to investigate the level of expression of ICAM-1 (CD54), which is involved in cell infiltration, cell migration, angiogenesis, etc. in inflammatory response. In order to investigate the level of ICAM-1 expression, mouse anti-ICAM-1 antibody (Santa Cruz, USA) and HRP-conjugated secondary antibody (1:10,000, Zymed) were used.

VEGF [2] = assay: VEGF expression in mouse skin, Western blotting; format: in vivo; details: treated prior to UV irradiation
Description: as §1
Western blotting was carried out in the same manner as Example 6 using the proteins isolated from the mouse skin tissue of each test group in Example 6, in order to investigate of capsiate on VEGF, which plays an important role in angiogenesis. In order to investigate the level of VEGF expression, VEGF antibody (Santa Cruz, USA) and HRP-conjugated secondary antibody (1:10,000, Zymed) were used.

MMP-2 = MMP-2 mRNA in mouse skin, RT-PCR; format: in vivo; details: mouse tissue of Example 5; normalized using GAPDH
Description: mRNA was extracted from the mouse tissue of each test group of Example 5 and the level of expression thereof was evaluated in order to investigate the effect of capsiate on the expression of MMP-2 and MMP-9 induced by angiogenesis and immune response.
For RNA extraction from the tissue, each mouse tissue was subjected to skin biopsy, quickly frozen in liquid nitrogen and finely ground using a mortar. RNA was extracted from the mouse tissue using Trizol (Invitrogen, USA). PCR (PTC-225 Peltier thermal cycler, MJ Research, USA) was carried out using the RNA as template and using a commercial kit (reverse transcription system, Qiagen, USA). As a result, cDNA for each test group was prepared.
RT-PCR (Rotor Gene 6 series, Corbett Research, Australia) was carried out using thus prepared cDNA as template and using MMP-2 and MMP-9 primers (Qiagen, USA). The level of mRNA expression for MMP was normalized using GAPDH. The level of expression was compared with that of the non-treated group, which was treated with acetone only.

IL-2 = assay: Secretion of IL-2 by T cells, ELISA; format: cell-based, C57/BL6 mouse; details: mouse spleen T cells of Example 14-1; vs control group
Text: In order to investigate the effect of capsiate on activation of T cells, the production of IL-2 by the T cells the proliferation of which was induced in Example 14-1 was compared with the non-capsiate-treated control group. IL-2 is a T cell proliferation factor secreted from stimulated T cells and acts as a cytokine affecting the proliferation of T helper cells, cytotoxic T (TC) cells and natural killer (NK) cells, activation of T cells, proliferation of B cells, and production of antibody.
Specifically, the degree of IL-2 production was measured by ELISA. IL-2 recognition antibody was attached on a 96-well plate. Next day, after suppressing non-specific recognition using blocking buffer (PBS containing 5% BSA), cultured T cells were added to the plate and incubated at room temperature for 4 hours. Subsequently, after incubating using biotinylated IL-2 secondary antibody (Becton Dikinson, USA), absorbance (540 nm) was measured using an ELISA reader using biotin-recognizing enzyme antibody (streptavidine-conjugated HRP, Becton Dikinson, USA), while varying the substrate.

## COc1cc(COC(=O)CCCC/C=C/C(C)C)ccc1O [capsiate]
ERK
  phosphorylation of ERK: inhibited
VEGF [1]
  UV-induced VEGF expression in the cytoplasm: decreased
MMP-9
  expression and activity of MMP-9 (zymography): inhibited expression and activity
ICAM-1 (CD54)
  level of ICAM-1 expression increased by UV irradiation: decreased
VEGF [2]
  level of VEGF expression in the mouse skin tissue: decreased
MMP-2
  expression of MMP-2 (mRNA) in mouse skin tissue: decreased
IL-2
  IL-2 production by T cells: significantly decreased
